Structures can show the parent of a compound that is named as a salt.
What was measured:
[1] = system: rats; test: Effect on arthritis induced in rats by Freund's adjuvant (Table II); assay type: in vivo, male Sprague-Dawley rats; conditions: day 20
[2] = system: mice; test: Analgesic activity, hot plate test in mice (Table III); assay type: in vivo, male Swiss mice
Experimental: (§1) In the present study the test compounds were administered perorally by means of a stomach tube as an aqueous suspension in 5% acacia gum at a constant volume of 10 ml/kg to male Swiss mice and male Sprague-Dawley rats. Control rats and mice were given a corresponding volume of the aqueous suspension medium. The results were statistically evaluated by Dunnett's test (C. V. Dunnett.: J.A. Stat. Ass., 40, 1096, 1955).
The analgesic activity was evaluated in mice by the hot plate test according to Janssen and Jageneau (J.Pharm.Pharmac., 9, 381, 1957).
The plate temperature was kept constant at 55° C.; the reaction time was determined before and 30, 60, 90 and 120 minutes after oral administration of the test compound. Average values after administration of the test compound were compared to those obtained before treatment.

[3] = system: rats; test: Analgesic-anti-inflammatory activity, Randall and Selitto, brewer's yeast inflamed paw in rats (Table IV); assay type: in vivo, male Sprague-Dawley rats
Experimental: as §1
4. Analgesic-anti-inflammatory activity
The analgesic-anti-inflammatory activity was evaluated in rats by the method of Randall and Selitto (Arch. Int. Pharmacodyn., 111, 409, 1957), using an analgesimeter to measure the minimum load that must be applied to a rat's hind paw to elicit a painful stimulus.
Both the controls and the experimental rats were injected into the right hind paw with 0.1 ml of 20% brewer's yeast in sterile saline immediately before the administration of the test compound.
The volume of the inflamed right hind paw was measured 1, 2 and 4 hours after the administration of the test compound.
The analgesic-anti-inflammatory activity was evaluated using an "analgesic index" expressed as a ratio between the sum of the average weights (grams) necessary to provoke a painful stimulus at different times in treated and control animals.

[4] = system: rats; test: Antipyretic activity, fever induced by brewer's yeast in rats (Table V); assay type: in vivo, male Sprague-Dawley rats
Experimental: as §1
The antipyretic activity was investigated in rats by the method of Niemegeers et al. (see Arzneim.Forsch. 25, 1519, 1975). The rectal temperature was measured immediately before and 4 hours after the subcutaneous injection of 1 ml/100 g body weight of a 15% brewer's yeast suspension in 1% acacia gum.
The test compound was administered orally to groups of 5 different rats per dose 4 hours after the yeast injection. The rectal temperature was measured 0.5, 1, 1.5, 2, 2.5, 3 and 19 hours after treatment.
(§2) Average values of the temperatures obtained in the treated rats were compared with those of control rats.

[5] = system: rats; test: Effect on normal temperature of rats (Table VI); assay type: in vivo, male Sprague-Dawley rats
Experimental: as §1
6. Effect on normal temperature of rats
The rectal temperature was measured at 30-minute intervals before and after administration of the test compound, that is, at -1.5, -1, -0.5, 0.5, 1, 1.5 and 2 hours, using groups of 10 rats each for each dosage level.
as §2

[6] = system: rats; test: Ulcerogenic effect, gastric lesions in rats (Table VIII); assay type: in vivo, male Sprague-Dawley rats; conditions: single dose; for % animals with gastric lesions: 16 h
Experimental: as §1
The ulcerogenic effect was determined in rats by the method of Niemegeers et al. (Arzneimittel-Forschung 25, 1537, 1975). A single oral dose was administered to groups of 15 rats fasted for 9 hours before treatment and kept fasting throughout the whole experimental period. The animals were sacrificed 16 hours after treatment; the severity of lesions was scored according to an arbitrary scale ranging from + to ++++. For each group of rats, an ulcerogenic index was calculated according to Pauls et al., (Gastroenterology 8, 774, 1947).

SMILES: CCCCC(C(=O)O)C(=O)N(Nc1ccccc1)c1ccccc1 (centres unmarked) [B, Calcium salt of butylpropanedioic acid mono(1,2-diphenylhydrazide), reference compound]
- % Inhibition ([1]; 40 mg/kg oral): 30%
- % Inhibition ([1]; 80 mg/kg oral): 32%
- % Inhibition ([1]; 160 mg/kg oral): 41.6%
- Reaction time ([2]; 50 mg/kg oral, 0 (before administration)): 14.00 ± 3.80 s
- Reaction time ([2]; 50 mg/kg oral, 30 min): 16.50 ± 3.60 s
- Reaction time ([2]; 100 mg/kg oral, 0 (before administration)): 14.30 ± 2.67 s
- Reaction time ([2]; 100 mg/kg oral, 90 min): 17.10 ± 4.48 s
- Reaction time ([2]; 100 mg/kg oral, 120 min): 16.10 ± 2.56 s
- Reaction time ([2]; 200 mg/kg oral, 0 (before administration)): 12.90 ± 2.92 s
- Mean of the weights eliciting painful stimulus ([3]; 40 mg/kg oral, 1 h): 145.0 grams
- Mean of the weights eliciting painful stimulus ([3]; 40 mg/kg oral, 2 h): 108.8 grams
- Mean of the weights eliciting painful stimulus ([3]; 40 mg/kg oral, 4 h): 105.0 grams
- Mean of the weights eliciting painful stimulus ([3]; 80 mg/kg oral, 1 h): 140 grams
- Mean of the weights eliciting painful stimulus ([3]; 80 mg/kg oral, 2 h): 128.8 grams
- Mean of the weights eliciting painful stimulus ([3]; 80 mg/kg oral, 4 h): 110.0 grams
- Mean of the weights eliciting painful stimulus ([3]; 160 mg/kg oral, 1 h): 142.8 grams
- Mean of the weights eliciting painful stimulus ([3]; 160 mg/kg oral, 2 h): 161.2 grams
- Mean of the weights eliciting painful stimulus ([3]; 160 mg/kg oral, 4 h): 140.0 grams
- Rectal temperature ([4]; 40 mg/kg oral, 0 h (4 h after yeast, before treatment)): 38.08 °C
- Rectal temperature ([4]; 40 mg/kg oral, 0.5 h): 38.05 °C
- Rectal temperature ([4]; 40 mg/kg oral, 1 h): 38.20 °C
- Rectal temperature ([4]; 40 mg/kg oral, 1.5 h): 38.09 °C
- Rectal temperature ([4]; 40 mg/kg oral, 2 h): 38.17 °C
- Rectal temperature ([4]; 40 mg/kg oral, 2.5 h): 38.45 °C
- Rectal temperature ([4]; 40 mg/kg oral, 3 h): 38.01 °C
- Rectal temperature ([4]; 40 mg/kg oral, 19 h): 37.28 °C
- Rectal temperature ([4]; 40 mg/kg oral, -4 h (before yeast)): 36.74 °C
- Rectal temperature ([4]; 80 mg/kg oral, 0 h (4 h after yeast, before treatment)): 38.02 °C
- Rectal temperature ([4]; 80 mg/kg oral, 0.5 h): 37.10 °C
- Rectal temperature ([4]; 80 mg/kg oral, 1 h): 37.38 °C
- Rectal temperature ([4]; 80 mg/kg oral, 1.5 h): 37.48 °C
- Rectal temperature ([4]; 80 mg/kg oral, 2 h): 37.65 °C
- Rectal temperature ([4]; 80 mg/kg oral, 2.5 h): 37.96 °C
- Rectal temperature ([4]; 80 mg/kg oral, 3 h): 37.80 °C
- Rectal temperature ([4]; 80 mg/kg oral, 19 h): 37.44 °C
- Rectal temperature ([4]; 80 mg/kg oral, -4 h (before yeast)): 36.96 °C
- Rectal temperature ([4]; 160 mg/kg oral, 0 h (4 h after yeast, before treatment)): 38.52 °C
- Rectal temperature ([4]; 160 mg/kg oral, 0.5 h): 37.89 °C
- Rectal temperature ([4]; 160 mg/kg oral, 1 h): 37.81 °C
- Rectal temperature ([4]; 160 mg/kg oral, 1.5 h): 37.90 °C
- Rectal temperature ([4]; 160 mg/kg oral, 2 h): 37.34 °C
- Rectal temperature ([4]; 160 mg/kg oral, 2.5 h): 37.50 °C
- Rectal temperature ([4]; 160 mg/kg oral, 3 h): 37.41 °C
- Rectal temperature ([4]; 160 mg/kg oral, 19 h): 36.75 °C
- Rectal temperature ([4]; 160 mg/kg oral, -4 h (before yeast)): 36.06 °C
- Rectal temperature (normal rats) ([5]; 40 mg/kg oral, 0.5 h): 36.02 °C
- Rectal temperature (normal rats) ([5]; 40 mg/kg oral, 1 h): 36.13 °C
- Rectal temperature (normal rats) ([5]; 40 mg/kg oral, 1.5 h): 36.10 °C
- Rectal temperature (normal rats) ([5]; 40 mg/kg oral, 2 h): 36.20 °C
- Rectal temperature (normal rats) ([5]; 40 mg/kg oral, -0.5 h (before administration)): 36.33 °C
- Rectal temperature (normal rats) ([5]; 40 mg/kg oral, -1 h (before administration)): 36.62 °C
- Rectal temperature (normal rats) ([5]; 40 mg/kg oral, -1.5 h (before administration)): 37.15 °C
- Rectal temperature (normal rats) ([5]; 80 mg/kg oral, 0.5 h): 36.14 °C
- Rectal temperature (normal rats) ([5]; 80 mg/kg oral, 1 h): 36.27 °C
- Rectal temperature (normal rats) ([5]; 80 mg/kg oral, 1.5 h): 36.31 °C
- Rectal temperature (normal rats) ([5]; 80 mg/kg oral, 2 h): 36.47 °C
- Rectal temperature (normal rats) ([5]; 80 mg/kg oral, -0.5 h (before administration)): 36.34 °C
- Rectal temperature (normal rats) ([5]; 80 mg/kg oral, -1 h (before administration)): 36.51 °C
- Rectal temperature (normal rats) ([5]; 80 mg/kg oral, -1.5 h (before administration)): 36.69 °C
- Rectal temperature (normal rats) ([5]; 160 mg/kg oral, 0.5 h): 35.62 °C
- Rectal temperature (normal rats) ([5]; 160 mg/kg oral, 1 h): 35.70 °C
- Rectal temperature (normal rats) ([5]; 160 mg/kg oral, 1.5 h): 35.92 °C
- Rectal temperature (normal rats) ([5]; 160 mg/kg oral, 2 h): 36.24 °C
- Rectal temperature (normal rats) ([5]; 160 mg/kg oral, -0.5 h (before administration)): 36.00 °C
- Rectal temperature (normal rats) ([5]; 160 mg/kg oral, -1 h (before administration)): 36.52 °C
- Rectal temperature (normal rats) ([5]; 160 mg/kg oral, -1.5 h (before administration)): 36.50 °C
- Body weight, mean ± standard deviation ([6]; 40 mg/kg oral): 194.67 ± 7.43 grams
- % animals with gastric lesions ([6]; 40 mg/kg oral): 0%
- Body weight, mean ± standard deviation ([6]; 80 mg/kg oral): 190.67 ± 8.84 grams
- % animals with gastric lesions ([6]; 80 mg/kg oral): 0%
- Body weight, mean ± standard deviation ([6]; 160 mg/kg oral): 198.00 ± 11.46 grams
- % animals with gastric lesions ([6]; 160 mg/kg oral): 6.66%
- Body weight, mean ± standard deviation ([6]; 320 mg/kg oral): 186.67 ± 7.24 grams
- % animals with gastric lesions ([6]; 320 mg/kg oral): 64.28%

Source: US4301177A, “(3-Methyl-2-butenyl)propanedioic acid mono (1,2-diphenylhydrazide) and salts thereof” (Istituto de Angeli S.p.A., priority 1979, dated 1981)
